Several values for one entry are separate records, joined by “and”; a condition that tells them apart may be missing. Identical values can stand only once. Entries after “also recorded” stand apart in the source; their conditions may differ. Counter-ions that a name gives are not always drawn. Like-named read-outs stand apart in the source and are kept apart here.

For data set [1] the following is noted: cited from earlier work; for Duration of bronchospasmolytic activity, in words: relative to a marketed comparator.
A short description of data set [2]: Duration of serum levels of terbutaline after oral administration of test compounds to unanaesthetized dogs. Format: in vivo, dogs (Beagle, male). The conditions noted are these: for concentration at 1 h: 1 hour after administration; for concentration at 2 h: 2 hours after administration; for concentration at 3 h: 3 hours after administration; for concentration at 4 h: 4 hours after administration; for concentration at 6 h: 6 hours after administration. As for the experimental part: Five dogs (Beagle, .male., 13-18 kg) have been used repeatedly in the study. Each dog was used at most once a week. Food was withheld from the animals the night before the experiment (water ad libitum). The test compound was dissolved in 8 ml of distilled water, and delivered into the back of the mouth by use of a syringe and a short tube. This oral supply was followed by a water rinse of 8 ml.
The blood was collected from the cephalic veins in the forelegs by use of evacuated tubes. The esterase inhibitor diisopropylfluophoshate (DFP) was added, the samples centrifugated (+5°) and the amount of terbutaline in plasma determined by a massfragmentographic analysis method. The serum level of terbutaline indicates the degree of bronchospasmolytic effect of the test compounds.
The amounts of the test substances to be administered were selected so that the level of terbutaline corresponds to the serum levels obtained and found effective in patients at clinical use, that is a level of terbutaline of at least 2 ng/ml serum for 6 to 8 hours. The doses of the test substances of the invention were selected so that the serum levels of terbutaline obtained would correspond approximately with the serum levels obtained after administration of terbutaline per se.
The test results are given in Table 1 below, where the time course of the serum level of terbutaline in the test animals is given. Each set of serum levels is the result of test in one dog. The boxed time interval represents the interval where a clinically effective serum level of terbutaline is obtained. Thus, the boxed interval represents the clinically useful duration of the test compounds.

The test system of data set [3] is isolated tracheal muscle from guinea-pig. Put plainly: In vitro test on isolated guinea-pig trachea (relaxation of pilocarpine-contracted trachea). The conditions noted are these: for EC50: Cavia porcellus, pilocarpine-contracted, eserine 1·10^-6 mol/l, read-out: Concentration of test substance producing 50% relaxation of the trachea (EC50). On the procedure: The trachea from guinea-pigs was dissected out, cut spirally and transferred to a 10 ml organ bath containing Krebs solution of 37° and aerated with carbogen. The tracheal strip was contracted by pilocarpine (4·10^-6 mol/l) producing a tension of about 1.5 g. Isometric recording was made by use of a transducer FT03 and Grass polygraph 7D. Before the administration of the test compound the esterase inhibitor eserin was added to the bath in a concentration of 1·10^-6 mol/l. The concentration of the test substances which produces 50% relaxation (EC50) of the pilocarpine contracted trachea was recorded as well as potentiating or inhibiting influence of the test substances of the invention on the relaxing effect of terbutaline. In this last mentioned test the muscle preparation was pretreated with the test compounds during 5 minutes, before the response of terbutaline was recorded.

The test system of data set [4] is histamine-induced bronchospasm in unanaesthetized guinea-pigs. The data set is described as follows: Protecting effect against histamine-induced bronchospasm after oral administration in guinea-pigs. It counts as in vivo, guinea-pigs (Dunkin-Hartley, male). The conditions noted are these: for ED50: Cavia porcellus, 0.05 h, histamine aerosol, read-out: Dose protecting 50% of the test animals for more than 3 minutes (ED50). As for the experimental part: Male guinea-pigs, Dunkin-Hartley strain, 150-200 g, were used in the study. The animals were starved for about 15 hours (water ad libitum) before the administration, by a stomach tube, of test compound or vehicle (controls). To establish an adequate time period between administration and histamine exposure, the maximum plasma level of terbutaline produced from the hydrolysis of the given pro-drugs of terbutaline was determined. Thus, blood samples (in pre-experimental series) were collected from guinea-pigs at different times after the administration of the test compound and the plasma level of tarbutaline was determined by a massfragmentographic analysis. A peak in the plasma turbutaline was noted 50-60 minutes after the administration, and this time was selected as time for start of histamine exposure.
The histamine aerosol was generated by Bird inline nebulizers from a solution containing 0.02% histamine-HCl and 3% glycerole. The protecting effect was estimated from the delay in appearance of signs of anoxia in drug-treated animals. […] Drug-treated guinea-pigs without any signs of respiratory influence from the histamine during these first 3 minutes were denoted as protected.

Data set [5] in a line: In vitro test on isolated guinea-pig auricles (chronotropic and inotropic effect). Details: species or system guinea-pig (Dunkin Hartley, male). The conditions noted are these: guinea pig, isolated auricles; relative values; eserine 1·10^-6 mol/l; read-out: Chronotropic effect on isolated auricle (relative values). As for the experimental part:
(§1) Male guinea-pigs strain Dunkin Hartley (400-500 g) were used. After bleeding and removal of the heart the auricles were dissected free from the ventricular part and submerged into carbogen aerated Krebs solution of 37°. The frequency and force of the spontaneously beating preparation was recorded by a Grass transducer FT03. In the polygraph (Grass 7D) the signals from the isometric transducer passed a trigger function from the drive amplifier to the tachograph to record the rate.
(§2) The esterase inhibitor eserine was added to a concentration of 1·10^-6 mol/l in the organ bath before the drugs to be tested were added. The intrinsic activity of the test compounds on the heart preparation, that is their effect on heart rate (chronotropic effect) and their effect on the force of the heart beats (inotropic effect), and their possible interaction with terbutaline was studied.

For data set [6], the system named is isolated auricles from guinea-pig heart. Described as above. Details: species or system guinea-pig (Dunkin Hartley, male). On the procedure: as §1, §2
In the next data set the test system is heart rate in dogs. The data set is described as follows: In vivo test on the effect on the heart rate in dogs. Details: species or system dogs (Beagle, male). The conditions noted are these: oral; for Slope of the line of increase in heart rate vs. logarithm of corresponding serum conc.: serum conc. of terbutaline; for Slope of the line of increase in heart rate vs. logarithm of corresponding serum conc. / Correlation coefficient (increase in heart rate vs. logarithm of serum conc.): terbutaline 0.01-0.1 mg/kg, test compound 0.3-3 mg/kg. As for the experimental part: Five dogs (Beagle, .male., 13-18 kg) have been used repeatedly in the study. Each dog was used at most once a week. Food was withheld from the animals the night before the experiment (water ad libitum). The test compound was solved in 8 ml of distilled water, and delivered into the back of the mouth by use of a syringe and a short tube. This oral supply was followed by a water rinse of 8 ml.
The blood was collected from the cephalic veins in the forelegs by use of evacuated tubes. The esterase inhibitor diisopropylfluophosphate (DFP) was added, the samples centrifugated (+5°) and the amount of terbutaline in plasma determined by a massfragmentographic analysis method. The serum level of terbutaline indicates the degree of bronchospasmolytic effect of the test compounds.
The amounts of the test substances to be administered were selected so that the level of terbutaline, when administered per se, corresponds to the serum levels obtained and found effective in patients at clinical use, that is a level of terbutaline of at least 2 ng/ml serum for 6 to 8 hours. The doses of the test substances of the invention were selected so that the serum levels of terbutaline obtained would correspond approximately with the serum levels obtained after administration of terbutaline per se.
The heart rate was determined by a stethoscope (the mean of three determinations during a 5-minute periode) before the administration of drug and before each blood sampling.
The relative effect of the test compounds on the heart rate of the test animals was illustrated by plotting in a diagram the increase in heart rate measured at a certain serum concentration of terbutaline versus the logarithm of the said terbutaline concentration in serum. Only values before and up to the maximal increase in heart rate were used. This method will produce a graph consisting of a substantially straight line. When such a line is drawn from each test compound, it can be seen from the slope of the line how the heart rate is correlated to the serum concentration of the test compound.

The mark [7] stands for this setting: dog, serum, po, 0.03 mg/kg, read-out: Serum level of terbutaline.
[8] abbreviates: dog, serum, po, 0.1 mg/kg, read-out: Serum level of terbutaline.

For the molecule `Cc1ccc(C(=O)Oc2ccc(C(O)CNC(C)(C)C)cc2OC(=O)c2ccc(C)cc2)cc1` (stereo not shown) [bitolterol], the “Duration of bronchospasmolytic activity, in words” value in data set [1] is “comparable with that of salbutamol”.

Turning to `CN(C)C(=O)Oc1cc(OC(=O)N(C)C)cc(C(O)CNC(C)(C)C)c1` (stereo not shown) [I, 1-[bis-(3',5'-N,N-dimethylcarbamoyloxy)phenyl]-2-N-tert.butylaminoethanol hydrochloride], in data set [2] (p.o., dogs), the “Duration of terbutaline serum level of 2 ng/ml or more” value is no less than 16 h. Also, in data set [2] (p.o., dogs, terbutaline 2 ng/ml serum or higher), the “Duration of clinically useful serum level relative to terbutaline” value was “at least twice as long”. Moreover, the “Potentiating or inhibiting effect of the test substance on the bronchodilating effect of terbutaline” value in data set [3] (5 minutes pretreatment, hydrochloride) was “none and No potentiating or inhibiting activity”. In addition, the EC50 in data set [3] was greater than 20000 nM. Also, in data set [3] (isolated guinea-pig trachea, hydrochloride), the “Bronchodilating effect (intrinsic), in words” value is listed as “did not produce any bronchodilating effect; also recorded: did not exert any intrinsic bronchodilating effect”. For the same molecule, in data set [4], the ED50 (usually the midpoint of the dose-response relation) was 2.7 mg/kg and 6.7 µmol/kg. In addition, the “Bronchospasmolytic potency relative to terbutaline” value in data set [4] (on molar basis, in words) is reported as “less potent than the reference substance terbutaline”. The Emax in data set [5] came to 0%. Besides, the “Chronotropic or inotropic effect, in words” value in data set [6] (isolated guinea-pig auricles) is “did not show any chronotropic or inotropic effect”. Also, the “Potentiating or inhibiting effect on the chronotropic and inotropic effect of terbutaline” value in data set [6] (test compound in same concentration as terbutaline) is recorded as “No potentiating or inhibiting effect”. Further, in the data set with heart rate in dogs (hydrochloride), the “Increase in heart rate relative to terbutaline, in words” value is “relatively much lower increase in heart rate than the reference compound terbutaline; also recorded: considerably reduced stimulating effect on the heart rate compared with the heart rate stimulating effect of terbutaline”. Besides, in the data set on heart rate in dogs, the “Slope of the line of increase in heart rate vs. logarithm of corresponding serum conc.” value amounted to 0.63 and the “Correlation coefficient (increase in heart rate vs. logarithm of serum conc.)” value was found to be 0.9324.

Take `CC(C)(C)NCC(O)c1ccc(O)c(CO)c1` (stereo not drawn) [salbutamol, α-(tert.)-butylaminomethyl-4-hydroxy-m-xylene-α-diolsulphate]: the “Duration of bronchospasmolytic activity, in words” value in data set [1] is on record as “about equal to the duration of terbutaline”.

Regarding `CC(C)(C)NCC(O)c1cc(O)cc(O)c1` (stereo not shown) [terbutaline, 1-(3',5'-dihydroxyphenyl)-2-t-butylaminoethanol sulphate], in data set [2] (setting [7]), the concentration at 1 h amounted to 4.8 ng/mL, the concentration at 2 h stood at 2.9 ng/mL, the concentration at 3 h was 2.4 ng/mL and the concentration at 4 h is 2.2 ng/mL. Besides, the concentration at 6 h in data set [2] (setting [7]) stood at 1.9 ng/mL. Moreover, in data set [2] (setting [8]), the concentration at 1 h was found to be 5.7 ng/mL, the concentration at 2 h worked out at 13.7 ng/mL, the concentration at 3 h was 9.2 ng/mL and the concentration at 4 h was 6.1 ng/mL. Besides, the concentration at 6 h in data set [2] (setting [8]) was 3.4 ng/mL. Besides, in data set [2] (dog, serum, po, 0.1 mg/kg, 8 hours after administration, read-out: Serum level of terbutaline), the concentration at 8 h was found to be 2.2 ng/mL. In data set [2] (dog, serum, po, 0.1 mg/kg, 12 hours after administration, read-out: Serum level of terbutaline), the concentration at 12 h was 1.1 ng/mL. Besides, the concentration at 16 h in data set [2] (dog, serum, po, 0.1 mg/kg, 16 hours after administration, read-out: Serum level of terbutaline) stood at 0.8 ng/mL. Further, in data set [2] (dog, serum, po, 0.1 mg/kg, 24 hours after administration, read-out: Serum level of terbutaline), the concentration at 24 h amounted to 0.35 ng/mL. Besides, the EC50 in data set [3] was determined as 210 ± 50 nM. For the same molecule, the ED50 in data set [4] was 0.4 mg/kg and 1.5 µmol/kg. Also, the Emax in data set [5] was 100%. In data set [6] (relative values, eserine 1·10^-6 mol/l), the “Inotropic effect on isolated auricle (relative values)” value is recorded as 1.0. In the data set on heart rate in dogs, the “Slope of the line of increase in heart rate vs. logarithm of corresponding serum conc.” value is reported as 1.04 and the “Correlation coefficient (increase in heart rate vs. logarithm of serum conc.)” value came to 0.9598. Further, in data set [1] (Hornblad et al. (1976)), the “Serum concentration of terbutaline necessary for desired therapeutic activity” value is on record as “at least 2 ng/ml”. For the same molecule, the “Duration of terbutaline serum level at clinical use” value in data set [1] (normally obtained at clinical use of terbutaline, 2 ng/ml) is reported as “about 8 hours”.
